Series [1] has as its system PC-3. The series can be described thus: Antiproliferative activity against human PC3 cells after 4 days by CellTiter-Glo assay. The format is functional, cell-based. To be noted: PC-3, 96 h.
The test system of series [2] is MCF7. Kind of series: Antiproliferative activity against human MCF7 cells expressing neo-HER2 after 3 days by CellTiter-Glo assay. The format is functional, cell-based. Particulars: MCF7, 72 h.
Series [3] can be described thus: Clearance in rat liver microsomes. The format is ADME, Microsome.
Series [4] has as its target T1, Phosphatidylinositol 4,5-bisphosphate 3-kinase catalytic subunit alpha isoform (Homo sapiens, UniProt P42336). Kind of series: Inhibition of recombinant PI3Kalpha (unknown origin)-mediated 3,4,5-inositoltriphosphate formation after 30 mins by TAMRA-PIP3-based competitive fluorescence polarization assay.
The nature of series [5]: Apparent permeability from apical to basal side of MDCK cells. Particulars: dog. The format is ADME, cell-based, Canis lupus familiaris.
Series [6] deals with T1, Phosphatidylinositol 4,5-bisphosphate 3-kinase catalytic subunit alpha isoform.
Description: Inhibition of PI3Kalpha-mediated AKT Ser 473 phosphorylation in human PC3 cells
Series [7] can be described thus: Clearance in human liver microsomes. The format is ADME, Microsome. A general note: Microsomes from liver hold many membrane-bound enzymes, among them those of drug oxidation.
Series [8] is described as follows: Kinetic solubility of the compound by dry down method. It counts as physicochemical. Particulars: read-out: Kinetic_solubility.
The test system of series [9] is Mus musculus. The series can be described thus: Unbound AUC in nude mouse at 25 mg/kg. The format is ADME, organism-based. On the set-up: dose 25 mg/kg. To be noted: in vivo.
Series [10] can be described thus: Plasma clearance in Sprague-Dawley rat at 1 mg/kg, iv. It counts as ADME, organism-based. Set-up: dose 1 mg/kg, route intravenous.
Series [11] in a line: Thermodynamic solubility of the compound at pH 7.4. To be noted: buffer, read-out: Therm_solubility. The format is physicochemical.
The test system of series [12] is Mus musculus. The series can be described thus: Unbound AUC in nude mouse at 50 mg/kg. The format is ADME, organism-based. Set-up: dose 50 mg/kg. Particulars: in vivo.
Series [13] concerns Mus musculus. The series can be described thus: Unbound AUC in nude mouse at 100 mg/kg. To be noted: in vivo. It counts as ADME, organism-based. Set-up: dose 100 mg/kg.

Converted amounts (≈) assume the structure as drawn.

T1 sequence (P42336 whole entry, canonical isoform): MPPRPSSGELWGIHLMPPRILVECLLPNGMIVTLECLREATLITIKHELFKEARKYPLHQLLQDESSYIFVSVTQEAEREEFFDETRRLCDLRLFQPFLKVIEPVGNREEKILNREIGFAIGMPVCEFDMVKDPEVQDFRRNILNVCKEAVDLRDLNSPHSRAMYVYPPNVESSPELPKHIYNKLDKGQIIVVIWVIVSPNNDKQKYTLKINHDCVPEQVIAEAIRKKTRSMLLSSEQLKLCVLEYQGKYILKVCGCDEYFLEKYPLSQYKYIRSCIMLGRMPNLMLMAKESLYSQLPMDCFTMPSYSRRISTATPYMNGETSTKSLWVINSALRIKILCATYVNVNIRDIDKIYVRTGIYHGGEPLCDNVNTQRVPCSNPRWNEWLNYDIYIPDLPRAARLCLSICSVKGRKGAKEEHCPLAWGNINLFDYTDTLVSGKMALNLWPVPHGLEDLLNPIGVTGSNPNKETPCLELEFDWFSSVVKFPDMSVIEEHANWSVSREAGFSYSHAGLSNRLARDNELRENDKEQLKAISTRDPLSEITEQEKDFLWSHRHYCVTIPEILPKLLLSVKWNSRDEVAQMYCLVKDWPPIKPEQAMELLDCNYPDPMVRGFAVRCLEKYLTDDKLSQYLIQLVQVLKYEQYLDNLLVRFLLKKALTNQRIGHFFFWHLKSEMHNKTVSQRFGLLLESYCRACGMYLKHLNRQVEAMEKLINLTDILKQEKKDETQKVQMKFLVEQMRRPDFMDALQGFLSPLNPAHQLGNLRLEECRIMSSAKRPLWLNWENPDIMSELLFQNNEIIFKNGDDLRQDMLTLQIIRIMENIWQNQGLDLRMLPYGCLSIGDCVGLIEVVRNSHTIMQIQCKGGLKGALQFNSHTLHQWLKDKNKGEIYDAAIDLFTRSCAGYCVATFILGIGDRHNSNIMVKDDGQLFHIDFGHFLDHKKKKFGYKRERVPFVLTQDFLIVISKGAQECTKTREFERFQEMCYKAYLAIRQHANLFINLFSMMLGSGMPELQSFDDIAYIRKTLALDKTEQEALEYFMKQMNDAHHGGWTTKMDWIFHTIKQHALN

By IC50 is commonly meant the concentration needed to halve the response being measured. As a reminder, the Papp A→B is how fast a substance crosses the layer from the apical side. `CN(C(=O)c1cc2c(s1)-c1ccc(C(N)=O)cc1OCC2)c1ccccc1Cl`: the 50% inhibitory concentration (IC50) in series [1] is above 3500 nM; in [2], above 4100 nM; in [4], 1.5 nM; in [6], 100 nM. Besides, the CLhep predicted in series [3] is 43 mL/min/kg; in series [7] it was 18 mL/min/kg. Further, in [5], the Papp A→B worked out at 2.1 ×10⁻⁶ cm/s.

Regarding `CN(C(=O)c1cc2c(s1)-c1ccccc1OCC2)C1CCCCC1`, the IC50 in series [4] turned out to be 885 nM.

Take `CC(C)N(C)C(=O)c1cc2c(s1)-c1ccccc1OCC2`: the IC50 in [4] is above 2000 nM.

Take `Nc1nc(-c2cc3c(s2)-c2ccccc2OCC3)c(-c2ccccc2Cl)s1`: in series [8], the solubility kinetic is 4 µM (≈ 1.64 µg/mL). Besides, the IC50 was below 0.5 nM in series [4] and 23 nM in [6].

With `CC(=O)Nc1nc(-c2cc3c(s2)-c2ncccc2OCC3)c(-c2ccccc2Cl)[nH]1`, in series [8], the solubility kinetic was determined as 41 µM (≈ 17.9 µg/mL). Further, the IC50 in series [4] was below 1.4 nM; in series [6] it was 36 nM.

Turning to `O=c1[nH]nc(-c2cc3c(s2)-c2ccccc2OCC3)n1-c1ccccc1Cl`, the IC50 in [4] worked out at 1.2 nM; in series [6] it was 20 nM.

As for `NC(=O)c1ccc2c(c1)OCCc1cc(-c3n[nH]c(=O)n3-c3ccccc3Cl)sc1-2`, the solubility kinetic in [8] turned out to be 15 µM (≈ 6.58 µg/mL). The figures for the 50% inhibitory concentration (IC50) in [4] and in series [6] were below 0.5 nM and 20 nM, respectively.

A word on the clearance: it is a measure of how efficiently the substance is removed, as volume per time. High values mean a high capacity for elimination, low ones a low capacity for elimination. `CC(C)n1ncnc1-c1cc2c(s1)-c1ccc(C(N)=O)cc1OCC2`: the fAUC in series [9] was found to be 5.7 µM·h; in series [12], 13.6 µM·h; in series [13] it was 17.8 µM·h. In series [10], this compound registered a clearance of 13 mL/min/kg. Moreover, the solubility thermodynamic in series [11] was determined as 53 µg/mL (≈ 150 µM). Also, the CLhep predicted in series [3] was 29 mL/min/kg; in series [7], 10 mL/min/kg. For the same compound, the solubility kinetic in series [8] was above 200 µM. Moreover, the Papp A→B in series [5] came to 20 ×10⁻⁶ cm/s.

`CC(C)Cn1ncnc1-c1cc2c(s1)-c1ccc(C(N)=O)cc1OCC2` registered a clearance in series [10] of 112 mL/min/kg. Besides, the figures for the CLhep predicted in [3] and in series [7] were 49 mL/min/kg and 19 mL/min/kg, respectively. Further, in [8], the solubility kinetic is above 200 µM. In addition, the IC50 in series [4] came to 4 nM; in series [6] it was 279 nM.

`NC(=O)c1ccc2c(c1)OCCc1cc(-c3ncnn3C3CCC3)sc1-2` yielded a clearance in series [10] of 61 mL/min/kg. Moreover, the results for the CLhep predicted in [3] and in series [7] were 44 mL/min/kg and 19 mL/min/kg, respectively. For the same compound, the solubility kinetic in series [8] was 37 µM (≈ 13.6 µg/mL). Moreover, the IC50 in [4] worked out at 8 nM; in [6], 563 nM.

In the case of `NC(=O)c1ccc2c(c1)OCCc1cc(-c3ncnn3CCO)sc1-2`, the CLhep predicted in series [3] was 25 mL/min/kg; in series [7], 10 mL/min/kg. In series [8], the solubility kinetic is above 200 µM. Besides, the IC50 was 15 nM in series [4] and above 1000 nM in [6].

In the case of `CN(C)CCn1ncnc1-c1cc2c(s1)-c1ccc(C(N)=O)cc1OCC2`, the CLhep predicted in series [3] is 38 mL/min/kg; in series [7], 14 mL/min/kg. Besides, the solubility kinetic in [8] came to 128 µM (≈ 49.1 µg/mL). Also, the IC50 in [4] is 142 nM.

In the case of `CC(C)(O)Cn1ncnc1-c1cc2c(s1)-c1ccc(C(N)=O)cc1OCC2`, the clearance in [10] was determined as 57 mL/min/kg. The CLhep predicted in series [3] is 15 mL/min/kg; in [7], 11 mL/min/kg. In [8], the solubility kinetic was above 200 µM. For the same compound, the IC50 in [4] is 4 nM; in series [6], 481 nM.

On to `NC(=O)c1ccc2c(c1)OCCc1cc(-c3ncnn3CC(F)(F)F)sc1-2`, for which, in [10], the clearance is 11 mL/min/kg. Also, the CLhep predicted in [3] was 12 mL/min/kg; in series [7] it was 7 mL/min/kg. For the same compound, the solubility kinetic in [8] was above 200 µM. Also, the IC50 in [4] amounted to 7 nM; in series [6], 487 nM.

`CN(C(=O)c1cc2c(s1)-c1ccccc1OCC2)c1ccc(F)cc1F`: the values for the IC50 in series [4] and in series [6] were 52 nM and above 1000 nM, respectively.

`CN(C(=O)c1cc2c(s1)-c1ncccc1OCC2)c1ccccc1Cl`: the solubility kinetic in series [8] worked out at 41 µM (≈ 15.2 µg/mL). In addition, the values for the IC50 in [4] and in series [6] were 7 nM and above 1000 nM, respectively.

For `Clc1ccccc1-n1cnnc1-c1cc2c(s1)-c1ccccc1OCC2`, the solubility kinetic in series [8] amounted to 15 µM (≈ 5.7 µg/mL). For the same compound, the IC50 in series [4] stood at 7.3 nM; in series [6] it was 74 nM.

Turning to `NC(=O)c1ccc2c(c1)OCCc1cc(-c3nncn3-c3ccccc3Cl)sc1-2`, in series [8], the solubility kinetic was found to be 9 µM (≈ 3.81 µg/mL). In addition, the IC50 in series [4] was below 0.5 nM; in [6], 60 nM.

`NC(=O)c1ccc2c(c1)OCCc1cc(-c3nnnn3-c3ccccc3Cl)sc1-2`: the solubility kinetic in [8] was above 200 µM. In addition, the values for the IC50 in series [4] and in series [6] were below 0.5 nM and 42 nM, respectively.

`Clc1ccccc1-c1ocnc1-c1cc2c(s1)-c1ncccc1OCC2`: the solubility kinetic in series [8] worked out at 41 µM (≈ 15.6 µg/mL). Besides, the IC50 in [4] came out at 12 nM; in series [6] it was 250 nM.

For `Fc1ccc(-n2ncnc2-c2cc3c(s2)-c2ccccc2OCC3)c(F)c1`, in series [8], the solubility kinetic was 4.1 µM (≈ 1.56 µg/mL). Further, the IC50 in [4] was 1.2 nM; in [6], 110 nM.

Turning to `NC(=O)c1ccc2c(c1)OCCc1cc(-c3ncnn3-c3ccc(F)cc3F)sc1-2`, the results for the fAUC in series [9], in series [12] and in series [13] were 0.26 µM·h, 0.53 µM·h and 0.54 µM·h, respectively. The IC50 in series [1] is 180 nM; in series [2], 23 nM; in series [4], below 0.5 nM; in [6], 17 nM. For the same compound, in [10], the clearance was found to be 38 mL/min/kg. Besides, the solubility thermodynamic in [11] is below 1 µg/mL. Besides, the figures for the CLhep predicted in series [3] and in series [7] were 24 mL/min/kg and 7 mL/min/kg, respectively. Further, the solubility kinetic in [8] was above 200 µM. Moreover, the Papp A→B in series [5] amounted to 13 ×10⁻⁶ cm/s.

`NC(=O)c1ccc2c(c1)OCCc1cc(-c3n[nH]cc3-c3ccccc3Cl)sc1-2`: the solubility kinetic in [8] was found to be 12 µM (≈ 5.06 µg/mL). Also, the IC50 in series [4] is 1 nM; in series [6] it was 28 nM.

Values taken from ChEMBL document CHEMBL2321704, “Cis-amide isosteric replacement in thienobenzoxepin inhibitors of PI3-kinase” (Bioorg Med Chem Lett, 2013).
